Earlier results in patent publication US20260167972A1, “AMINO ACID DERIVATIVES AS NOVEL DELIVERY AGENTS FOR FUNCTIONAL DELIVERY OF OLIGONUCLEOTIDES” (University of Rochester, priority 2022, published 2026).
“Also recorded” adds a separate entry of the source.

Test system: human A549 lung adenocarincoma cells
Details: cyclic peptide complexed with Rh-siRNA; compared with naked Rh-siRNA; cited from earlier work

| Substance | Rh-siRNA cellular/cytosolic delivery |
| --- | --- |
| Ac-C(WR)4CG-NH2 | improved Rh-siRNA cellular delivery compared with naked Rh-siRNA; also recorded: significantly enhanced cytosolic delivery of Rh-siRNA |
| Ac-C(FKFE)2CG-NH2 | improved Rh-siRNA cellular delivery compared with naked Rh-siRNA |
